{
  "source": "patent US6469166B2",
  "about": "“Thiophenopyrimidines” (Neurocrine Biosciences, Inc., priority 1996, dated 2002)",
  "biological_target": "T1, human CRF receptors (Homo sapiens, UniProt P34998)",
  "T1 construct": "expressed in transfected cells; a membrane suspension of the stably transfected cells was used",
  "T1 sequence (P34998 24-415)": "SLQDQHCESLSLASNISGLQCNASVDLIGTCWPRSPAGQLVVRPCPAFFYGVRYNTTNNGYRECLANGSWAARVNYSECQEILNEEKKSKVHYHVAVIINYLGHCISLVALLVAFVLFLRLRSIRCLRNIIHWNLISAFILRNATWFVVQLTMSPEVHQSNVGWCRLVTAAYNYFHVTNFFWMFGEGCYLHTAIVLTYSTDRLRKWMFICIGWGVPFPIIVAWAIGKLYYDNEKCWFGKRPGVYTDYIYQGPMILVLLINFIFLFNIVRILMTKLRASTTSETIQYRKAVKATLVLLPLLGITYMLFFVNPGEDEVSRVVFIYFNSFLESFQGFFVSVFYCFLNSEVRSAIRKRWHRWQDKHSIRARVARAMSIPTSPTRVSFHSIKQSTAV",
  "assay": "CRF receptor radioligand binding assay ([125I] tyrosine-ovine CRF displacement)",
  "conditions": "compounds found to show the best score in this test",
  "procedure": "Compounds were evaluated for binding activity to the CRF receptor by a standard radioligand binding assay as generally described by DeSouza et al. (J. Neutrosci. 7:88-100, 1987). By utilizing various radiolabeled CRF ligands, the assay may be used to evaluate the binding activity of the compounds of the present invention with any CRF receptor subtype. Briefly, the binding assay involves the displacement of a radiolabeled CRF ligand from the CRF receptor. More specifically, the binding assay was performed in 1.5 ml Eppendorf tubes using approximately 1×10^6 cells per tube stably transfected with human CRF receptors. Each tube received about 0.1 ml of assay buffer (e.g., Dulbecco's phosphate buffered saline, 10 mM magnesium chloride, 20 μM bacitracin) with or without unlabeled sauvagine, urotensin I or CRF (final concentration, 1 μM) to determine nonspecific binding, 0.1 ml of [^125I] tyrosine-ovine CRF (final concentration ˜200 pM or approximately the KD as determined by Scatchard analysis) and 0.1 ml of a membrane suspension of cells containing the CRF receptor. […] Following two washes of the pellets, the tubes were cut just above the pellet and monitored in a gamma counter for radioactivity at approximately 80% efficiency. All radioligand binding data were analyzed using a non-linear least-square curve-fitting program. […]",
  "data": [
    {"smiles": "CCCN(CCC)c1nc(C)nc2c(-c3c(C)cc(C)cc3C)csc12", "note": "[Compound 1, 2-methyl-6-(N,N-dipropylamino)-8-(2,4,6-trimethylphenyl)-thiopheno[3,2-d]pyrimidine]", "values": [
      {"measurement": "score in the CRF receptor binding test", "value": "best score"}
    ]}
  ]
}
